The assay has as its target T1, human TLR8 (wild type sequence) (Homo sapiens, UniProt Q9NR97).
T1 construct: expressed in transfected cells; host or cells: HEK293
T1 sequence (Q9NR97 27-1041): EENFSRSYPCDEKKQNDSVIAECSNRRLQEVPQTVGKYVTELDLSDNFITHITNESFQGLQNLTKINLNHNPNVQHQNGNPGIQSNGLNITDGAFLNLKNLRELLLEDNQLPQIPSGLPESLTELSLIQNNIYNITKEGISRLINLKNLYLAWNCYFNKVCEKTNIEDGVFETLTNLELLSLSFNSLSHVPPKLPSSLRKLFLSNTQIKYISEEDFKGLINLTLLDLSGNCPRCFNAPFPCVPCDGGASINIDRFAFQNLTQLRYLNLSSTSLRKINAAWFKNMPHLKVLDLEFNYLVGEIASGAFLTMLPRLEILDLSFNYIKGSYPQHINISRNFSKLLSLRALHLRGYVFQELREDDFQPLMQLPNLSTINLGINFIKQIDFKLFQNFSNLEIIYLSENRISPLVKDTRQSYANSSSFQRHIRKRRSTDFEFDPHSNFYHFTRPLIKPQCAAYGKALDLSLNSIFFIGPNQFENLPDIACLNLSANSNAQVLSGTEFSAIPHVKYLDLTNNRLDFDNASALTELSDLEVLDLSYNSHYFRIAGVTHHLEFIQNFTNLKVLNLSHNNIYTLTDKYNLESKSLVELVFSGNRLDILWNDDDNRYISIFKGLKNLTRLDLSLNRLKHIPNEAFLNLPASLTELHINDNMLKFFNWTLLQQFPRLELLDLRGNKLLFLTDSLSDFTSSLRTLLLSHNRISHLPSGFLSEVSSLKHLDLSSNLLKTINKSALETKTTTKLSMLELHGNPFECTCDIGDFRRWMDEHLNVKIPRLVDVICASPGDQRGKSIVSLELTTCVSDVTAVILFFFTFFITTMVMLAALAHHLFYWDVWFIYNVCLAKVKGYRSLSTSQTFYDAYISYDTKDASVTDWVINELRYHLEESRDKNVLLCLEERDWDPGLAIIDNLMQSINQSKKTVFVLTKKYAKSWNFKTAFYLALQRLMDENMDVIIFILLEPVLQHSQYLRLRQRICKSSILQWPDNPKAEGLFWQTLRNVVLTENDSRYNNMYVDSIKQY
Kind of assay: TLR8 cellular NFκB-luc reporter assay, wild type TLR8. As to conditions: lowest effective concentration, wild type TLR8 (compounds 1-73). Format: cell-based. Also on record: unit not given here. The essentials: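 First, HEK293 cells were co-transfected with TLR7 or TLR8 (native or LRR2-deletion) and NFκB-luc and cultured 48 h. Next, cells were incubated with compound for 6 h at 37 °C. Finally, luciferase was read; LEC came from dose-response curves run in quadruplicate.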
In general terms: In a reporter assay the amount or activity of a reporter protein is the signal.
The molecule `CCCCCOc1cnc(N)nc1NCCCC` [Compound 32] showed a TLR8-wt_LEC of 9.97. Under `CCCCNc1nc(N)ncc1OC` [Compound 4] stands 2.56; under `CCCCCNc1nc(N)ncc1Oc1ccccc1OC` [Compound 38], more than 50. Molecule `CCCCNc1nc(N)ncc1Oc1ccccc1OC` [Compound 64] displayed a TLR8-wt_LEC of 18.43. In the case of `CCCCNc1nc(N)ncc1OCC` [Compound 60] it was 2.08. In turn, `CCCCCNc1nc(N)ncc1OCC` [Compound 63] registered a TLR8-wt_LEC of 6.35. Under `CCCCCNc1nc(N)ncc1OC` [Compound 56] stands 5.55; under `CCCCNc1nc(N)ncc1OCC(C)C` [Compound 31], 17.53; under `CCCCNc1nc(N)ncc1OCc1ccc(-c2ccccc2)cc1` [Compound 58], 3.84.

In turn, `CCCCCCNc1nc(N)ncc1OCC` [Compound 70] returned a TLR8-wt_LEC of more than 24.59.

The values above are taken from patent US11541050B2, “Pyrimidine derivatives for the treatment of viral infections” (JANSSEN SCIENCES IRELAND UC, priority 2011, dated 2023).
